Experimental data reported in patent EP2217930B1, “MALDI MS-BASED HIGH-THROUGHPUT SCREENING METHOD FOR SUBSTANCES INHIBITING AGGREGATION OF ALZHEIMER'S AMYLOID BETA PEPTIDES” (Tallinn University of Technology, priority 2007, dated 2009).

Target: T1, Aβ42 (Homo sapiens, UniProt P05067)
T1 construct: Both 40 and 42 amino acid amyloid beta peptides were purchased from rPeptide; purchased rPeptide (Bogart, USA)
Test: automatic MALDI-TOF MS high-throughput screening assay for inhibitors of Aβ42 aggregation (detection of monomeric Aβ42, insulin B chain as internal standard)
Format: biochemical
Settings: 35 selected substances tested; 5 µM Aβ42 in 20mM HEPES 0.1 M NaCl pH 7.5; monomeric Aβ42 detected by MALDI-TOF MS
Description: For every aggregation experiment Aβ42 solutions were prepared following the same procedure. The lyophilized peptide was taken out from the -80°C fridge, and incubated at room temperature until thawing. Cold 0.02% ammonium hydroxide was added to the peptide to get a final concentration of 10 µM. The solution was mixed on the vortex for a minute and put on ice. Before the beginning of the experiment the solution was mixed again for a shorter time. To start the experiment, the peptide stock solution was diluted in a ratio of 1:1 into the buffer, which contained various concentrations of a tested compound. All probes contained 5 µM Aβ42 in 20mM HEPES 0.1 M NaCl pH 7.5. Aβ42 solutions were always prepared shortly before the beginning of experiment.
First, 5 µM B chain solution in 60% AcN 0.3% TFA was prepared and added to the α-cyano matrix solution to generate a 10 mg/ml α-cyano, 0.25 µM B chain solution in 60% AcN 0.3% TFA. The solution was mixed on a vortex for a minute and then incubated at room temperature for 10 minutes. Solution was mixed again, centrifuged for 3 min at 6000 rpm and the supernatant was transferred into a clean vial. Shortly before the beginning of aggregation experiments, Aβ42 solutions were prepared and transferred to sequential wells of a 96-well plate.
Spots on MALDI plates were generated automatically by an Ettan Spotter (Amersham Biosciences, Sweden). Different spotting procedures were tested and best results were obtained using the following method: 0.5 µl sample + 1.5 µl matrix containing the internal calibrant - mixing 3 times with a volume of 1 µl.
The spots were air-dried and spectra were collected automatically with Voyager DE™ STR BioSpectrometry™Workstation (Applied Biosystems, USA) mass spectrometer. […] The spectra were processed with Data Explorer™ Software (Version 4; Applied Biosystems, USA).

T1 sequence (P05067 672-713 limits assumed): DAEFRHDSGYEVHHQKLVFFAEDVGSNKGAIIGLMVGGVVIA

| inhibition of aggregation of Aβ42 | Substance |
| --- | --- |
| inhibited aggregation of Aβ42 | Zn(CH3COO)2 [zinc] |
| inhibited aggregation of Aβ42 | copper |

| Substance | inhibition of aggregation of Aβ42 |
| --- | --- |
| hemin | inhibits aggregation of Aβ42 |
